Series [1] concerns HepG2 cells. Kind of series: Human hepatocyte (HepG2) proliferation assay. The class given is cell-based. The conditions noted are these: for EC50: 24 h exposure, XTT. The method, then: In each well of a 96-well tissue culture plate (GR-655180; Grenier), 10,000 human hepatocytes (HepG2) (85011430; […] Sigma]) supplemented with 2 mM L-[…]-020-1B; Biological Industries), 1% nonessential amino acids (XC-[…]/100; Biosera), and 10% fetal bovine serum (BI-04-007-1A; Biological Industries), and plates were incubated overnight at 37°C and 5% CO2. […] The plate was incubated for a further 24 h or 72 h at 37°C and 5% CO2. The medium was then replaced with 100 μl of freshly prepared 2,3-bis-(2-methoxy-4-nitro-5-sulfophenyl)-2H-tetrazolium-5-carboxanilide salt (XTT) sodium salt solution (0.5 mg/ml of XTT; […]; Sigma) in RPMI 1640 ([…]; Sigma-Aldrich) with 3.83 μg/ml of phenazine methosulfate ([…]; Sigma-Aldrich) and incubated 2 to 3 h at 37°C and 5% CO2 ([43]). The color reaction was measured on Victor X5 plate reader (Perkin-Elmer) at OD450, and the half-maximal effective concentration (EC50) was calculated. Tamoxifen (85256; Sigma) was used as a positive-control compound.
In general terms: Formazan colour is commonly taken as a measure of viable cells.

Series [2] deals with Candida albicans. Kind of series: Abrogation of the antifungal effect by exogenous divalent metals. The class given is cell-based. The conditions noted are these: for fungal growth rate compared to control cells: in the presence of 100 μM Fe^2+. The method, then:
Antifungal susceptibility testing was carried out as described previously ([38], [39]), with a few modifications. Briefly, for each yeast or mold growth inhibition assay, frozen stocks of yeast cells or spores were diluted to a final concentration of 0.5 × 10^5 to 2.5 × 10^5 CFU/ml in sterile water. ZAC989, ZAC307, and ZAC623 were dissolved in DMSO to 10 mM stocks from which half-log serial dilutions were prepared. Growth assays were subsequently performed by pipetting 3 μl of compound dissolved in DMSO (giving a final concentration of 1.5% DMSO), 100 μl of cell-spore suspension, and 97 μl of 2× RPMI medium (20.8 g/liter of RPMI 1640 medium, 69.06 g/liter of morpholinepropanesulfonic acid [MOPS], 36 g/liter of glucose) into a microtiter plate that was incubated for 24 h (yeasts) or 48 to 72 h (molds) at 34°C. Fungal growth was determined spectrophotometrically by optical density reading of each well at a wavelength of 492 nm on a Victor X5 (Perkin-Elmer) plate reader. […] Standard errors between repeated experiments were generally below 5%. The growth effect of exogenous addition of various divalent metals was evaluated by performing the antifungal […], MgCl2, and CaCl2.

Series [3] deals with C. parapsilosis ATCC 22019. Kind of series: Antifungal susceptibility testing (MIC). The class given is cell-based, Candida parapsilosis. The conditions noted are these: Lodderomyces parapsilosis, ATCC22019; at least 50% growth inhibition, RPMI, 24 h, 34°C. The method, then: (§1) Antifungal susceptibility testing was carried out as described previously ([38], [39]), with a few modifications. Briefly, for each yeast or mold growth inhibition assay, frozen stocks of yeast cells or spores were diluted to a final concentration of 0.5 × 10^5 to 2.5 × 10^5 CFU/ml in sterile water. ZAC989, ZAC307, and ZAC623 were dissolved in DMSO to 10 mM stocks from which half-log serial dilutions were prepared. Growth assays were subsequently performed by pipetting 3 μl of compound dissolved in DMSO (giving a final concentration of 1.5% DMSO), 100 μl of cell-spore suspension, and 97 μl of 2× RPMI medium (20.8 g/liter of RPMI 1640 medium, 69.06 g/liter of morpholinepropanesulfonic acid [MOPS], 36 g/liter of glucose) into a microtiter plate that was incubated for 24 h (yeasts) or 48 to 72 h (molds) at 34°C. Fungal growth was determined spectrophotometrically by optical density reading of each well at a wavelength of 492 nm on a Victor X5 (Perkin-Elmer) plate reader. […] Standard errors between repeated experiments were generally below 5%. The growth effect of exogenous addition of various divalent metals was evaluated by performing the antifungal susceptibility assay in the presence of 5 μM ZAC989 or ZAC307 and with increasing concentrations (0.003 to 50 μM) of ZnSO4, CuSO4, (NH4)2Fe(SO4)2, MgCl2, and CaCl2.

In series [4] the test system is Rhizopus oryzae ATCC 34965. The series can be described thus: Antifungal susceptibility testing (MIC). The conditions noted are these: Rhizopus arrhizus, ATCC34965; no visible growth, 48 to 72 h, 34°C. The class given is cell-based. As to the method: as §1
Series [5] deals with Aspergillus fumigatus ATCC 13073. The series can be described thus: Antifungal susceptibility testing (MIC). The settings on record: ATCC13073, no visible growth, 48 to 72 h, 34°C. The class given is cell-based. As to the method: as §1
Series [6] concerns C. tropicalis Ct016. Kind of series: Antifungal susceptibility testing (MIC). The class given is cell-based. The conditions noted are these: Candida tropicalis, at least 50% growth inhibition, RPMI, 24 h, 34°C. The method, then: as §1
Series [7] deals with Aspergillus terreus At070. Kind of series: Antifungal susceptibility testing (MIC). The class given is cell-based. The conditions noted are these: no visible growth, 48 to 72 h, 34°C. The method, then: as §1
The test system of series [8] is Rhizopus microsporus ATCC 66276. The series can be described thus: Antifungal susceptibility testing (MIC). The class given is cell-based. The conditions noted are these: ATCC66276, no visible growth, 48 to 72 h, 34°C. The method, then: as §1
In series [9] the test system is A. fumigatus AF48 (ΔzrfA ΔzrfB). Kind of series: Growth capacity in sRPMI zinc-limiting medium, 24-well plates. The conditions noted are these: 75 μM compound, 44 h, 37°C. The class given is cell-based, Aspergillus fumigatus. The method, then: (§2) Growth capacity experiments with A. fumigatus strains AF14, AF54, AF48, AF732, and AF731 were performed in 24-well flat-bottomed tissue culture plates (35-3047; Falcon). A stock solution of 10 mM TPEN (P4413; Sigma) was prepared in pure ethanol. For these experiments, 5 mM stock solutions of ZAC307 and ZAC989 were prepared by dissolving each compound in 80% (vol/vol) ethanol. A 0.5 M stock solution of Na2EDTA·2H2O (1.08421.1000; Merck) was prepared in sterile water. A 1× stock solution (10.4 g/liter) of RPMI 1640 medium (R8755; Sigma) supplemented with 10 μM FeSO4·7H2O, 1 μM CuSO4·5H2O, and 1 μM MnCl2·H2O (sRPMI) was prepared under aseptic conditions and used as standard culture medium. In each well, 1 ml of culture medium containing sRPMI medium, Tween 20, ethanol (or the specified compound dissolved in 80% ethanol), and 10^5 conidia was dispensed to achieve final concentrations of 0.7×, 0.05% (vol/vol), 1.2% (vol/vol), and 10^5 conidia/ml, respectively. Plates were incubated for 44 h at 37°C in a humid atmosphere. To quantitate mycelial growth, each plate was scanned in an Agfa SnapScan 1236s scanner, and the intensity of the wells was quantified using the open-source image processing program Image J2. The data were represented and analyzed with Prism software 7.0.

Series [10] relates to A. fumigatus AF54 (ΔzrfC). Described as above. The class given is cell-based, Aspergillus fumigatus. The settings on record: average, either with or without simultaneous exposure to ZAC307 or ZAC989. As to the method:
as §2

Values after ≈ are worked out from the molar mass of the structure shown.

For orientation: EC50 means the concentration giving half of the maximal effect. Lower therefore signals higher potency in that assay. Consider `O=C(O)CN(CCN(CC(=O)O)CC(=O)O)CC(=O)O` [EDTA], for which, in series [1], the “effect on the proliferation of HepG2 cells (in words)” value was “did not affect the proliferation of HepG2 cells” and the 50% effective concentration (EC50) was over 29 µg/mL.
As usually defined, the MIC is the lowest concentration found to suppress growth. A low value points to inhibition by little substance. For `CN(C)c1cc(-n2nc(-c3ccccc3)cc2O)ncn1` [ZAC307, 2-[6-(dimethylamino)pyrimidin-4-yl]-5-phenyl-pyrazol-3-ol], in [2], the “effect of exogenous addition of zinc or copper on the antifungal effects” value is on record as “reversed”. For the same compound, the “fungal growth rate compared to control cells” value in series [2] was “approximately 50%”. Also, the MIC in series [3] came out at 0.4 µg/mL (≈ 1.42 µM); in series [4], 1.3 µg/mL (≈ 4.62 µM); in [5], 4 µg/mL (≈ 14.2 µM); in series [6], 0.4 µg/mL (≈ 1.42 µM); in series [7], 1.3 µg/mL (≈ 4.62 µM); in series [8], 0.4 µg/mL (≈ 1.42 µM). Moreover, in [9], the “reduction of growth capacity, 2 μM zinc plus compound compared to 50 μM zinc” value turned out to be 3.9 fold. Also, the “reduction of growth capacity at 2 μM zinc compared to 50 μM zinc” value in series [10] is recorded as 24.6 fold.
Regarding `Cc1cc(O)n(-c2cc(N3CC[C@H](Oc4cnccc4C#N)C3)ncn2)n1` [ZAC989, 3-[(3S)-1-[6-(5-hydroxy-3-methyl-pyrazol-1-yl)pyrimidin-4-yl]pyrrolidin-3-yl]oxy-pyridine-4-carbonitrile], the “effect of exogenous addition of zinc or copper on the antifungal effects” value in series [2] is “reversed”. Further, the “fungal growth rate compared to control cells” value in series [2] is “approximately 50%”. Also, the minimum inhibitory concentration (MIC) was 0.8 µg/mL (≈ 2.2 µM) in [3]; 1.7 µg/mL (≈ 4.68 µM) in [4]; 5.4 µg/mL (≈ 14.9 µM) in series [5]; 0.9 µg/mL (≈ 2.48 µM) in series [6]; 1.6 µg/mL (≈ 4.4 µM) in [7]; 0.5 µg/mL (≈ 1.38 µM) in series [8]. In addition, the “reduction of growth capacity, 2 μM zinc plus compound compared to 50 μM zinc” value in series [9] is listed as 4.5 fold. The “reduction of growth capacity at 2 μM zinc compared to 50 μM zinc” value in series [10] turned out to be 24.6 fold. Further, the 50% effective concentration (EC50) in series [1] was over 36 µg/mL.
